Test results taken from patent US11278682B2, “Device and method for aerosolized delivery of substance to a natural orifice of the body” (SIPNOSE LTD., priority 2014, dated 2022).
Several values for one entry are separate records, joined by “and”; a condition that tells them apart may be missing. Identical values can stand only once.

Legend:
[1] = Dose-response of Midazolam brain concentration; format: in vivo, rat; settings: rats; doses about 0.6 to about 6 mg/kg; brain concentration 60 minutes after administration
Procedure: In this example, doses of Midazolam between about 0.6 mg/kg and about 6 mg/kg were administered to rats and the concentration of Midazolam in the brain was measured 60 minutes after administration.

[2] = tested on: New Zealand White female rabbits; assay: Nasal cavity irritation and general toxicity of repeated intra-nasal Midazolam
Procedure: Nasal cavity irritation and general toxicity were assessed for repeated intra-nasal applications of Midazolam to rabbits, using a SipNose intra-nasal delivery device. Six New Zealand White female rabbits were used, with the three experimental animals being given two 200 μL doses of Midazolam (5 mg/ml) per day, six hours apart. The three control animals were given four 200 μL doses of saline solution per day, at 3 hour intervals.
The daily dosing was repeated for 10 days, for 11 days' dosage in total. 24 hours after the last dosing, the animals were sacrificed.
The animals were observed once daily until study termination. Shortly before sacrifice, blood was taken for testing.
After sacrifice, gross pathology was performed, examining major tissue and organ systems. Organs (nasal cavity (including olfactory epithelium), nasopharynx, paranasal sinus, trachea, lungs, larynx, brain (olfactory bulbs and hippocampus), heart, olfactory nerve, optic nerve and lacrimal glands) of all animals were harvested and examined. Three cross sections of the skull were taken: (1) in the nose from rostral, (2) behind the incisor teeth and (3) caudal, including the olfactory epithelium labyrinth, as shown in FIG. 85.
Brains were dissected in the olfactory regions and the hippocampus. Lungs were evaluated in both right and left lobes. Tissues were trimmed, embedded in paraffin, sectioned at no more than 5 microns thickness, and stained with Hematoxylin & Eosin (H&E).
In order to alleviate the discomfort an animal might endure during intra-nasal administration, prior to placement the sipNose device, Lidocaine was applied locally in the nasal area.

patients [3] = assay: Midazolam pre-medication sedation (BIS EEG monitoring), 3 mg, SipNose vs commercial nasal pump; format: in vivo, human; settings: for failures in inducing anesthesia: both comparisons pooled (3 mg and 1.4 mg)
Procedure: A comparison was made of the efficacy of delivery of the anesthetic Midazolam, when used for pre-medication, between an embodiment of the SipNose device of the present invention and a prior-art device, the commercial nasal pump based on positive displacement (as the pump used for Alrin™ delivery) and the MAD Nasal from Wolfe Tory.
Comparison with nasal pump (using 5 mg/ml solution): For a pre-medication procedure with commercial nasal pump (positive displacement pump), in order to achieve the desired dose of 3 mg Midazolam, the delivery device was inserted into a nostril and an aliquot of Midazolam is delivered. The delivery device is then inserted into the opposite nostril and a second aliquot of Midazolam is delivered. This is repeated twice more with a 30 s intervals between each cycle, for a total of six aliquots of Midazolam, three in each nostril. As opposed to that, for a SipNose device delivery, a single dose of 0.6 ml was delivered to one nostril.
(§1) In order to determine the efficacy of anesthetization a BIS EEG monitoring was used, where the BIS values for brain activity are calculated from the EEG activity. Awake, unsedated individuals typically have BIS values ≥97. Mildly sedated individuals typically have BIS values in the 80's, moderately sedated individuals typically have BIS values in the 70's, while fully sedated individuals typically have BIS values below about 70; BIS values between about 45 and about 60 are commonly used for general anesthesia during the maintenance phase of an operation.
(§2) Two comparisons were made between the commercial device and the present, SipNose, device. In the first, 3 mg of Midazolam was administered and the commercial device was a commercial nasal pump (positive displacement), in the second, 1.4 mg of Midazolam was administered and the commercial device was a MAD applicator.

[4] = tested on: Pentylenetetrazol (PTZ)-induced epileptic seizures in rats; assay: Brain concentration of Midazolam vs convulsion score in PTZ-induced seizures; format: in vivo, rat; settings: 60 minutes after administration
Procedure: Epileptic seizures were induced in rats by administration of Pentylenetetrazol (PTZ) and the severity of the seizures was measured 60 minutes after administration of Mizadolam. Doses of Mizadolam varied from zero to 6 mg/kg with SipNose nasal delivery device and with an I/V administration. Brain concentrations of Midazolam were measured and a correlation between brain concentration and convulsions score is shown in FIG. 81. Brain concentrations varied from zero to 130 ng/gr brain tissue. Black squares represent the I/V administrated animals and black dots represent the SipNose administrated animals.

patients [5] = assay: Midazolam pre-medication sedation (BIS EEG monitoring), 1.4 mg, SipNose vs MAD Nasal atomizer; format: in vivo, human; settings: for Positive Sedation / Adverse events / Level of minimum BIS / Onset time: individual patients 1 and 2
Procedure: Comparison with MAD (using a 1 mg/ml solution): For a pre-medication procedure with MAD atomizer, in order to achieve the desired dose of 1.4 mg Midazolam, the delivery device was delivered to one nostril and an aliquot of Midazolam within a volume of 1.4 ml was delivered. For SipNose device delivery the Midazolam was delivered in 2 separate aliquots of 0.7 ml, one to each nostril.
as §1, §2
In the second comparison, the total dose of Midazolam was 1.4 mg in a total volume of carrier of 1.4 ml. For the SipNose device, it was administered in two aliquots of 0.7 ml, whereas it was administered in one aliquot for the commercial MAD Nasal atomizer from Wolfe Tory. Midozolam was administered to four patients, two with the SipNose device and two with the commercial MAD device.

[6] = Midazolam pharmacokinetic study, plasma and brain, SipNose vs IV; settings: rats
Procedure: Concentration of Midazolam in the plasma and brain of rats were compared for intranasal administration via the SipNose delivery device and via IV administration. A standard drug formulation (Injectable Midazolam 5 mg/ml, Pfizer/Hospira brand) was used, with no reformulation or adaptation for nasal delivery. Two drug concentrations were used for the intranasal administration, 0.2 mg/kg (dashed line in FIGS. 91 and 92) and 0.6 mg/kg (dot-dash line in FIGS. 91 and 92), compared to the standard of care I/V administration of 0.6 mg/kg (solid line in FIGS. 91 and 92). Concentration was measured 10 times in the 12 hours of the study. For each measurement time, midazolam concentration was measured in the plasma and brain of five animals.

[7] = commercial nasal pump, 3 mg Midazolam
[8] = commercial MAD Nasal atomizer, 1.4 mg

## Cc1ncc2n1-c1ccc(Cl)cc1C(c1ccccc1F)=NC2 [Midazolam]
[1]
  dose-response curve of brain concentration: essentially linear
[2]; Midazolam group
  Amylase (blood chemistry): 240±13.1 IU/L
[2]; Midazolam vs control
  all relevant safety parameters (clinical observations, histopathology, ophthalmic examination, haematology, blood analysis): no differences were found between the control and study groups
[2]; Midazolam vs control group
  blood coagulation parameters: No differences were detected
[2]; either group
  histopathology: No major histopathological abnormalities were found
[2]; repeated intra-nasal Midazolam
  blood chemistry analysis, all results: within the normal range for the blood of rabbits
[2]; repeated intra-nasal Midazolam vs saline control
  blood hematology analysis: None of the parameters showed any difference between the control group and the study group
[2]; two 200 μL doses of Midazolam (5 mg/ml) per day via SipNose, repeated daily
  body weight during the study: did not exhibit major changes in weight
[2]; two animals from the Midazolam group, attributed to device tip
  finding in frontal nose space: very mild bleeding was detected in the frontal nose space
Patients [3]; SipNose device, 3 mg Midazolam
  Adverse events: 0
  Level of minimum BIS: 74.5±9
  Mean onset time: 5.9 ± 4.6 min
  level of Maximum BIS: 97
  sleep score (1 not sleepy, 2 sleepy or calm, 3 sleeping): 3
Patients [3]; SipNose device, 3 mg Midazolam, 8 patients
  Number of Positive Sedations: 8
Patients [3]; SipNose device
  failures in inducing anesthesia: no failures in 10 patients
Patients [3]; commercial device (nasal pump), 3 mg Midazolam
  sleep score (1 not sleepy, 2 sleepy or calm, 3 sleeping): less than 2
Patients [3]; commercial devices
  failures in inducing anesthesia: 2 failures and one partial failure in 6 patients
Patients [3]; [7]
  Adverse events: 0
  Level of minimum BIS: 87.5±5.3
  Mean onset time: 6.7 ± 4.6 min
  Minimum BIS excluding failure: 85
  level of Maximum BIS: 97
Patients [3]; commercial nasal pump, 3 mg Midazolam, 4 patients
  Number of Positive Sedations: 3
[4]; IV administration
  Midazolam brain concentration at which Racine severity reaches zero: about 130 ng/gm
  Midazolam brain concentration up to which Racine severity remained at about 1: about 25 ng/gm
[4]; SipNose administration
  Midazolam brain concentration needed to completely prevent seizures (score=0): ~11 ng/gm
Patients [5]; SipNose administration, 1.4 mg
  sleeping score by observation: 3
Patients [5]; SipNose device, 1.4 mg in two aliquots of 0.7 ml
  Positive Sedation: Yes
Patients [5]; SipNose device, 1.4 mg
  Adverse events: No
  Level of minimum BIS: 84
  Onset time: 3 min and 5 min
Patients [5]; commercial MAD Nasal atomizer, 1.4 mg in one aliquot
  Positive Sedation: Limited and No
Patients [5]; [8]
  Adverse events: No
  Level of minimum BIS: 83 and 92
  Onset time: 20 min and 8 min
Patients [5]; commercial device, 1.4 mg
  sleeping score by observation (average): 1.5
[6]; 0.6 mg/kg intranasal via SipNose
  pharmacokinetic pattern: very similar to that of standard of care (I/V) administration
[6]; intranasal via SipNose (0.2 and 0.6 mg/kg) vs I/V 0.6 mg/kg
  absorption into blood and brain: comparable to that seen for I/V administration
